Results as given in patent US10246429B2, “Vinyl fluoride cyclopropyl fused thiazin-2-amine compounds as beta-secretase inhibitors and methods of use” (AMGEN INC., priority 2015, dated 2019).

Experiments:
BACE1 [1] = target: T1, BACE1 (Homo sapiens (Human), UniProt P56817); test: In vitro enzymatic BACE1 FRET assay; assay type: biochemical; conditions: read-out: IC50 IP (μM) BACE1 Enzyme
Target sequence in this assay (P56817 46-501): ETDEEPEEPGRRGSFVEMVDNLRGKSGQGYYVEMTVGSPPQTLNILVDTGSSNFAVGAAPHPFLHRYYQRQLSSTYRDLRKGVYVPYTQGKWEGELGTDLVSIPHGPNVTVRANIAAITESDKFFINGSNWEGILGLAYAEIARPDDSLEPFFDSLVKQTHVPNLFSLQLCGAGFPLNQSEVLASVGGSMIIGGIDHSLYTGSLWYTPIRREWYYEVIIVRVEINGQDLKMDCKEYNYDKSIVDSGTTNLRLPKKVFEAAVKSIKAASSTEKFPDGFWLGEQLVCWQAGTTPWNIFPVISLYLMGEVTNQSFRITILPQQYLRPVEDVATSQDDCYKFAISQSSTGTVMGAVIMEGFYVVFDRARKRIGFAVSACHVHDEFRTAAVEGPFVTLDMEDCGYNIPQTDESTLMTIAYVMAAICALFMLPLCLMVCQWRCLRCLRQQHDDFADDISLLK
From the text: (§1) In Vitro Enzymatic BACE1 and BACE2 FRET (Fluorescence Resonance Energy Transfer) Assays (Enzyme Assay Data in Table 1)

Cathepsin D (CatD) = Cathepsin D (CatD) (Homo sapiens (Human), UniProt P07339); test: CatD assay; assay type: biochemical; conditions: read-out: IC50 IP (μM) CatD
Cathepsin D (CatD), sequence (P07339 65-412, species assumed): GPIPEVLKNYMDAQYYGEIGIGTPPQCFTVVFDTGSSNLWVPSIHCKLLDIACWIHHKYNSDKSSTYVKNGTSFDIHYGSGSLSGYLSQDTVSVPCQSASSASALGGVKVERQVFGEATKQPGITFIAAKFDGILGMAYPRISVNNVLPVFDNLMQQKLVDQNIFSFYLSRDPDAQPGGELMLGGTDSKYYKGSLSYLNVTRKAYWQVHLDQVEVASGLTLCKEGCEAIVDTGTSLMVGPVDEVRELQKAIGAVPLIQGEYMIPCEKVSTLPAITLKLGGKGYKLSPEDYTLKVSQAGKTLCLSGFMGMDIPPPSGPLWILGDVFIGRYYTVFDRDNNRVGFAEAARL

BACE1 [2] = target: T1, BACE1; test: BACE1 cell assay; assay type: cell-based
Target sequence in this assay (P56817 46-501, species assumed): as the sequence (P56817 46-501) above

BACE2 = BACE2 (Homo sapiens (Human), UniProt Q9Y5Z0); test: In vitro enzymatic BACE2 FRET assay; assay type: biochemical; conditions: read-out: IC50 IP (μM) BACE2 Enzyme
BACE2, sequence (Q9Y5Z0 63-518): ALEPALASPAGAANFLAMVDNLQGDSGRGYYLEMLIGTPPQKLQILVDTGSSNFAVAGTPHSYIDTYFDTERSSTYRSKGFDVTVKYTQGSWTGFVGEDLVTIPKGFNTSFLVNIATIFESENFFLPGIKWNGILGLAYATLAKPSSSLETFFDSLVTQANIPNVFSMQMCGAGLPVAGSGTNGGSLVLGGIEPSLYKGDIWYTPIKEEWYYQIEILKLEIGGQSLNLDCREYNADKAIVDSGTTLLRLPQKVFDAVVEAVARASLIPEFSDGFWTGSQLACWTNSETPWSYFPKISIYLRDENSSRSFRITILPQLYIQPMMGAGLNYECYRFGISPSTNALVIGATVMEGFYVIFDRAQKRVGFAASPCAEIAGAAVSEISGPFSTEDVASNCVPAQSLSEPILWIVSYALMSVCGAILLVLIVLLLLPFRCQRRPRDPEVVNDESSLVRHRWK
From the text: as §1

[3] = read-out: IC50 IP (μM) BACE1 Cell

SMILES | IC50 (BACE1 [1]) [µM] | IC50 (Cathepsin D (CatD)) [µM] | IC50 (BACE1 [2]; [3]) [µM] | IC50 (BACE2) [µM] | IC50 (BACE1 [2]) [µM]
C[C@]1(c2cc(/C=C(\F)c3cnc(C#C[Si](C)(C)C)cn3)ccc2F)N=C(N)S[C@@]2(C(=O)N3CCOCC3)C[C@H]21 [Example 349, ((1S,5S,6S)-3-amino-5-(2-fluoro-5-((Z)-2-fluoro-2-(5-((trimethylsilyl)ethynyl)pyrazin-2-yl)vinyl)phenyl)-5-methyl-2-thia-4-azabicyclo[4.1.0]hept-3-en-1-yl)(morpholino)methanone] | 0.003 | 78.1 | 0.034 | 0.253 | –
CN(C)C(=O)[C@]12C[C@H]1[C@@](C)(c1cc(/C=C(\F)c3ccc(C#CC4CC4)cn3)ccc1F)N=C(N)S2 [Example 109, (1S,5S,6S)-3-amino-5-(5-((Z)-2-(5-(cyclopropylethynyl)pyridin-2-yl)-2-fluorovinyl)-2-fluorophenyl)-N,N,5-trimethyl-2-thia-4-azabicyclo[4.1.0]hept-3-ene-1-carboxamide] | 0.00849 | 138 | 0.223 | 0.0615 | –
C[C@]1(c2cc(/C=C(\F)c3ccc(C#N)cn3)ccc2F)N=C(N)S[C@@]2(C(=O)N3CCOC4(COC4)C3)C[C@H]21 [Example 308, 6-((Z)-2-(3-((1S,5S,6S)-3-amino-5-methyl-1-(2,5-dioxa-8-azaspiro[3.5]nonane-8-carbonyl)-2-thia-4-azabicyclo[4.1.0]hept-3-en-5-yl)-4-fluorophenyl)-1-fluorovinyl)nicotinonitrile] | 0.0021 | 296 | 0.001 | 0.013 | –
CNC(=O)[C@]12C[C@H]1[C@@](C)(c1cc(/C=C(\F)c3ccc(C#CC4CC4)cn3)ccc1F)N=C(N)S2 [Example 358, (1S,5S,6S)-3-amino-5-(5-((Z)-2-(5-(cyclopropylethynyl)pyridin-2-yl)-2-fluorovinyl)-2-fluorophenyl)-N,5-dimethyl-2-thia-4-azabicyclo[4.1.0]hept-3-ene-1-carboxamide] | 0.018 | 39.8 | 0.256 | 0.415 | –
C[C@]1(c2cc(/C=C(\F)c3ccc(Cl)cn3)ccc2F)N=C(N)S[C@]2(CO)[C@H]1C2(F)F [Example 255, ((1S,5S,6R)-3-amino-5-(5-((Z)-2-(5-chloropyridin-2-yl)-2-fluorovinyl)-2-fluorophenyl)-7,7-difluoro-5-methyl-2-thia-4-azabicyclo[4.1.0]hept-3-en-1-yl)methanol] | 0.0477 | 235 | – | 0.056 | 0.505
C[C@]1(c2cc(/C=C(\F)c3ccc(C#N)cn3)ccc2F)N=C(N)S[C@@]2(C(=O)N3CCCC3)C[C@H]21 [Example 107, 6-((Z)-2-(3-((1S,5S,6S)-3-amino-5-methyl-1-(pyrrolidine-1-carbonyl)-2-thia-4-azabicyclo[4.1.0]hept-3-en-5-yl)-4-fluorophenyl)-1-fluorovinyl)nicotinonitrile] | 0.000673 | 396 | 0.00384 | – | –
C[C@]1(c2cc(/C=C(\F)c3cnc(C#N)cn3)ccc2F)N=C(N)S[C@@]2(C(=O)N3CC[C@H](F)C3)C[C@H]21 [Example 202, 5-((Z)-2-(3-((1S,5S,6S)-3-amino-1-((S)-3-fluoropyrrolidine-1-carbonyl)-5-methyl-2-thia-4-azabicyclo[4.1.0]hept-3-en-5-yl)-4-fluorophenyl)-1-fluorovinyl)pyrazine-2-carbonitrile] | 0.001 | – | 0.001 | 0.04 | –
C#CCOc1cnc(/C(F)=C/c2cnc(F)c([C@@]3(C)N=C(N)S[C@@]4(C(=O)N5CCOC[C@H]5C)C[C@H]43)c2)cn1 [Example 283, ((1S,5S,6S)-3-amino-5-(2-fluoro-5-((Z)-2-fluoro-2-(5-(prop-2-yn-1-yloxy)pyrazin-2-yl)vinyl)pyridin-3-yl)-5-methyl-2-thia-4-azabicyclo[4.1.0]hept-3-en-1-yl)((R)-3-methylmorpholino)methanone] | 0.0017 | – | 0.0044 | 0.375 | –
C#CCOc1cnc(/C(F)=C/c2ccc(F)c([C@@]3(C)N=C(N)S[C@@]4(C(=O)N5CCOC[C@H]5C)C[C@H]43)c2)cn1 [Example 304, ((1S,5S,6S)-3-amino-5-(2-fluoro-5-((Z)-2-fluoro-2-(5-(prop-2-yn-1-yloxy)pyrazin-2-yl)vinyl)phenyl)-5-methyl-2-thia-4-azabicyclo[4.1.0]hept-3-en-1-yl)((R)-3-methylmorpholino)methanone] | 0.0006 | – | 0.0015 | 0.29 | –
C[C@]1(c2cc(/C=C(\F)c3cnc(C#N)cn3)ccc2F)N=C(N)S[C@@]2(C(=O)N3CC[C@@H](F)C3)C[C@H]21 [Example 203, 5-((Z)-2-(3-((1S,5S,6S)-3-amino-1-((R)-3-fluoropyrrolidine-1-carbonyl)-5-methyl-2-thia-4-azabicyclo[4.1.0]hept-3-en-5-yl)-4-fluorophenyl)-1-fluorovinyl)pyrazine-2-carbonitrile] | 0.001 | – | 0.001 | 0.045 | –
C[C@]1(c2cc(/C=C(\F)c3cnc(C#N)cn3)ccc2F)N=C(N)S[C@@]2(C(=O)N3CCCC3)C[C@H]21 [Example 204, 5-((Z)-2-(3-((1S,5S,6S)-3-amino-5-methyl-1-(pyrrolidine-1-carbonyl)-2-thia-4-azabicyclo[4.1.0]hept-3-en-5-yl)-4-fluorophenyl)-1-fluorovinyl)pyrazine-2-carbonitrile] | 0.001 | – | – | 0.048 | 0.003
COC[C@]12C[C@H]1[C@@](C)(c1cc(/C=C(\F)c3ccc(Cl)cn3)ccc1F)N=C(N)S2 [Example 286, (1S,5S,6S)-5-(5-((Z)-2-(5-chloropyridin-2-yl)-2-fluorovinyl)-2-fluorophenyl)-1-(methoxymethyl)-5-methyl-2-thia-4-azabicyclo[4.1.0]hept-3-en-3-amine] | 0.0712 | – | 0.346 | 0.069 | –
C#CCOc1cnc(/C(F)=C/c2ccc(F)c([C@@]3(C)N=C(N)S[C@@]4(C(N)=O)C[C@H]43)c2)cn1 [Example 239, (1S,5S,6S)-3-amino-5-(2-fluoro-5-((Z)-2-fluoro-2-(5-(prop-2-yn-1-yloxy)pyrazin-2-yl)vinyl)phenyl)-5-methyl-2-thia-4-azabicyclo[4.1.0]hept-3-ene-1-carboxamide] | 0.0013 | – | – | 0.177 | 0.0029
COC[C@]12C[C@H]1[C@@](C)(c1cc(/C=C(\F)c3cc4c(cn3)OCCO4)ccc1F)N=C(N)S2 [Example 305, (1S,5S,6S)-5-(5-((Z)-2-(2,3-dihydro-[1,4]dioxino[2,3-c]pyridin-7-yl)-2-fluorovinyl)-2-fluorophenyl)-1-(methoxymethyl)-5-methyl-2-thia-4-azabicyclo[4.1.0]hept-3-en-3-amine] | 1.76 | – | 0.793 | 0.373 | –
COC(=O)[C@]12C[C@H]1[C@@](C)(c1cc(/C=C(\F)c3cnc(Cl)cn3)ccc1F)N=C(N)S2 [Example 149, (1S,5S,6S)-methyl 3-amino-5-(5-((Z)-2-(5-chloropyrazin-2-yl)-2-fluorovinyl)-2-fluorophenyl)-5-methyl-2-thia-4-azabicyclo[4.1.0]hept-3-ene-1-carboxylate] | 0.0352 | – | 0.883 | 0.206 | –
CN(C)C(=O)[C@]12C[C@H]1[C@@](C)(c1cc(/C=C(\F)c3cnc(C#CC4CC4)cn3)ccc1F)N=C(N)S2 [Example 159, (1S,5S,6S)-3-amino-5-(5-((Z)-2-(5-(cyclopropylethynyl)pyrazin-2-yl)-2-fluorovinyl)-2-fluorophenyl)-N,N,5-trimethyl-2-thia-4-azabicyclo[4.1.0]hept-3-ene-1-carboxamide] | 0.000856 | 71.9 | – | – | 0.0166
C#CCOc1cnc(/C(F)=C/c2ccc(F)c([C@@]3(C)N=C(N)S[C@@]4(C(=O)N5CC[C@@H](F)C5)C[C@H]43)c2)cn1 [Example 297, ((1S,5S,6S)-3-amino-5-(2-fluoro-5-((Z)-2-fluoro-2-(5-(prop-2-yn-1-yloxy)pyrazin-2-yl)vinyl)phenyl)-5-methyl-2-thia-4-azabicyclo[4.1.0]hept-3-en-1-yl)((R)-3-fluoropyrrolidin-1-yl)methanone] | 0.0009 | – | 0.0004 | 0.041 | –
C[C@]1(c2cc(/C=C(\F)c3ccc(C#N)cn3)ccc2F)N=C(N)S[C@@]2(C(=O)N3CCO[C@H]4C[C@H]43)C[C@H]21 [Example 311, 6-((Z)-2-(3-((1S,5S,6S)-3-amino-1-((1S,6R)-2-oxa-5-azabicyclo[4.1.0]heptane-5-carbonyl)-5-methyl-2-thia-4-azabicyclo[4.1.0]hept-3-en-5-yl)-4-fluorophenyl)-1-fluorovinyl)nicotinonitrile] | 0.0018 | – | 0.0015 | 0.048 | –
C[C@]1(c2cc(/C=C(\F)c3ccc(C#N)cn3)ccc2F)N=C(N)S[C@@]2(C(=O)N3CC[C@H](O)C3)C[C@H]21 [Example 125, 6-((Z)-2-(3-((1S,5S,6S)-3-amino-1-((S)-3-hydroxypyrrolidine-1-carbonyl)-5-methyl-2-thia-4-azabicyclo[4.1.0]hept-3-en-5-yl)-4-fluorophenyl)-1-fluorovinyl)nicotinonitrile] | 0.000592 | – | 0.000986 | 0.0364 | –
C[C@]1(c2cc(/C=C(\F)c3ccc(C#N)cn3)ccc2F)N=C(N)S[C@@]2(C(=O)N3CC[C@@H](O)C3)C[C@H]21 [Example 333, 6-((Z)-2-(3-((1S,5S,6S)-3-amino-1-((R)-3-hydroxypyrrolidine-1-carbonyl)-5-methyl-2-thia-4-azabicyclo[4.1.0]hept-3-en-5-yl)-4-fluorophenyl)-1-fluorovinyl)nicotinonitrile] | 0.0008 | – | 0.0007 | 0.053 | –
